In patent US8722744B2, “Galenical form for the administration of paracetamol by transmucous means” (priority 2006, dated 2014):

Columns and labels:
[1] = administered dosage; cited from earlier work
[2] = Dissolution of paracetamol in hydroalcoholic solution; assay type: physicochemical; details: ethanol at 45%
Experimental: The coefficient for dissolution of paracetamol in ethanol makes it possible to obtain a complete dissolution of said active ingredient at a level of 250 mg of paracetamol per 2 ml of ethanol at 45%. This coefficient can be modulated based on the degree of alcohol and the water/ethanol ratio that is used. By way of example, a 45% water/ethanol mixture at 50/50 by volume produces a better solubilization of paracetamol, compared to that obtained in pure ethanol.

SMILES: CC(=O)Nc1ccc(O)cc1 [paracetamol]
- dosage above which toxic to the liver [1]: higher than 4 g
- complete dissolution of the active ingredient [2]: 250 mg per 2 ml
